Reference: ChEMBL document CHEMBL5634147, “Multi-targeted anti-Alzheimer's agents: Synthesis, biological evaluation, and molecular modeling study of some pyrazolopyridine hybrids” (Eur J Med Chem, 2023)
Calls of active or inactive are those of the source. The rule behind the calls is not given here. Non-standard residues stand in square brackets, D forms with d. Residues, ends and D or L forms follow the SMILES beside them. *: point of attachment. Myristoyl = CCCCCCCCCCCCCC(=O)*; pS = N[C@@H](COP(=O)(O)O)C(=O)O

What was measured:
[1] = molecular target: Glycogen synthase kinase-3 beta (Homo sapiens, UniProt P49841); test: Inhibition of human GSK3beta by luminescent microplate reader method
Sequence of Glycogen synthase kinase-3 beta (P49841 whole entry): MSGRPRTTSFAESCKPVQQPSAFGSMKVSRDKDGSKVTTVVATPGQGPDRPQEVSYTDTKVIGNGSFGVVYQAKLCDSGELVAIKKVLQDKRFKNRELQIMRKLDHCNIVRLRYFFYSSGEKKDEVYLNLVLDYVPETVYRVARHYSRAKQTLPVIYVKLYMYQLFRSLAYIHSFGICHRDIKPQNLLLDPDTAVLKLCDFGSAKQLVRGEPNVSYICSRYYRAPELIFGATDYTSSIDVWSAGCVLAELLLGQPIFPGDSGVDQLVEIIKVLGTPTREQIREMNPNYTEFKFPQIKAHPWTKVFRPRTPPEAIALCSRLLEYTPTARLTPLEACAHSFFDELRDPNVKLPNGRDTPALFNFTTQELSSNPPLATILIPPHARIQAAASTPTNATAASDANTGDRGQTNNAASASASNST

[2] = molecular target: Acetylcholinesterase (Homo sapiens, UniProt P22303); test: Inhibition of human AChE using acetylthiocholine iodide as substrate measured after 15 to 20 mins by DTNB reagent based Ellman's method
Sequence of Acetylcholinesterase (P22303 whole entry): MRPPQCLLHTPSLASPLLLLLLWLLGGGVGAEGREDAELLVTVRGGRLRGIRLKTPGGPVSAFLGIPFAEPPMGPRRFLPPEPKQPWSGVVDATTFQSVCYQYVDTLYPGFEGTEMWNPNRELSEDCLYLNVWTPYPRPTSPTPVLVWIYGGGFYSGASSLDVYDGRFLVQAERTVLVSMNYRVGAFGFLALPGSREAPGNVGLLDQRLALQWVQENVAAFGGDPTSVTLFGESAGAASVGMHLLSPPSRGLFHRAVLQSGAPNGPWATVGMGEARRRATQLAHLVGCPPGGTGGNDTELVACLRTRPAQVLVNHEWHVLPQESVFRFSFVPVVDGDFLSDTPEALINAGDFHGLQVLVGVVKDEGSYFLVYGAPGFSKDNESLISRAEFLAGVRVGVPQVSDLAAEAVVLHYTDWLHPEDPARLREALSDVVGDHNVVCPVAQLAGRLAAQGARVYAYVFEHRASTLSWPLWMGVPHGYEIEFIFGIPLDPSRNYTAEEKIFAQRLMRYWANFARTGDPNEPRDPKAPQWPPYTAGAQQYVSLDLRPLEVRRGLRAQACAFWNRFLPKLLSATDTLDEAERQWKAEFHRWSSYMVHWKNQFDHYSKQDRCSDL

[3] = Metal chelating activity assessed as Cu2+-compound complex formation by measuring hyperchromic shift in presence of CuSO4 by UV-Vis spectroscopy
[4] = molecular target: T1, Microtubule-associated protein tau (Homo sapiens, UniProt P10636); test: Inhibition of human tau protein aggregation at 10 uM incubated for 1.5 hrs by TMB substrate based ELISA relative to control
T1 sequence (P10636 whole entry): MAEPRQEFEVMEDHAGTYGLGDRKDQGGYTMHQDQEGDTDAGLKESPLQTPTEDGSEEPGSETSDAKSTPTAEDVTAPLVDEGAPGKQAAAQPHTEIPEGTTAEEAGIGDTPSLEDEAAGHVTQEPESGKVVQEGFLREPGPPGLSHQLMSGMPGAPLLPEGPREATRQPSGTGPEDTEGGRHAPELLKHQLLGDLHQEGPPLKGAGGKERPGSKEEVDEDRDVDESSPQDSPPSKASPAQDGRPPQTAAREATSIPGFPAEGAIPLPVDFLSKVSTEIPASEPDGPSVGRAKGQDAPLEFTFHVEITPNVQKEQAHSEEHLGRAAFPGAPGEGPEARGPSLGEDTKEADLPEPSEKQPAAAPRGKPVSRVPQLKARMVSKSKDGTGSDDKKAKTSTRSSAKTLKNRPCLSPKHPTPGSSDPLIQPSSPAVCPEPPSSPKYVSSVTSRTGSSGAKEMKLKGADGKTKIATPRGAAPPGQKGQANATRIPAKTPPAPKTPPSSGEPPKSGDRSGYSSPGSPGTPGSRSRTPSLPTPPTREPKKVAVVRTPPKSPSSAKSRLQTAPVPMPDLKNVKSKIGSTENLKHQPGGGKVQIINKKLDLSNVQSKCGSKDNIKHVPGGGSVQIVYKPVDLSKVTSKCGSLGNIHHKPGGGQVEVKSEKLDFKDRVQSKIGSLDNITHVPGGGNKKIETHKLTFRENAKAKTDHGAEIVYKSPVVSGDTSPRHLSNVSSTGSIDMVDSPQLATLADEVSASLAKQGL

[5] = molecular target: T2, Amyloid-beta precursor protein (Homo sapiens, UniProt P05067); test: Inhibition of self-mediated Amyloid beta (1 to 42) (unknown origin) aggregation at 10 uM measured every 5 mins by ThT fluorescence based assay relative to control
T2 sequence (P05067 whole entry): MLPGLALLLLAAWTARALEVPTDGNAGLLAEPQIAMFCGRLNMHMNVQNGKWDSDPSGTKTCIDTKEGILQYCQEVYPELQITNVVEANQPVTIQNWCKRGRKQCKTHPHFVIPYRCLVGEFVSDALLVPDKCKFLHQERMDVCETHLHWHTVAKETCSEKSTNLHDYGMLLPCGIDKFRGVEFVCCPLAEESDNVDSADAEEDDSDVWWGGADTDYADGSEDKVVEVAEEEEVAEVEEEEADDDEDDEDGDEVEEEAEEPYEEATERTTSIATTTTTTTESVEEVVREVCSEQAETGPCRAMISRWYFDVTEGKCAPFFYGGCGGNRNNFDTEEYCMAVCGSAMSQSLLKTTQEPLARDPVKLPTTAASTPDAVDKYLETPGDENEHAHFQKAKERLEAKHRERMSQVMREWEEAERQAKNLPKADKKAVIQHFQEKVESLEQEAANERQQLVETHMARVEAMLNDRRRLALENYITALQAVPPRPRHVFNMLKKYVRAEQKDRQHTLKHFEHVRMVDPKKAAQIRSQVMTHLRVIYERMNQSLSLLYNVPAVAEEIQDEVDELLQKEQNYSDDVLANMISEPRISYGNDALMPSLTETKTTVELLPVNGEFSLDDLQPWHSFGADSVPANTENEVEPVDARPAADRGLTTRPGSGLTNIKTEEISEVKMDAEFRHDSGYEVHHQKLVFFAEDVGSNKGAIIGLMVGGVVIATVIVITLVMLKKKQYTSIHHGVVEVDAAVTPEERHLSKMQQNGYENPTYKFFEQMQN

[6] = Cytotoxicity against human WI-38 cells assessed as cell viability upto 3.125 uM incubated for 72 hrs by MTT assay relative to control; format: toxicity, cell-based; conditions: read-out: Activity
[7] = test system: human AChE; test: Safety index, ratio of IC50 for cytotoxicity against human WI-38 cells to IC50 for human AChE; format: toxicity, cell-based; conditions: read-out: Ratio IC50
[8] = Metal chelating activity assessed as Zn2+-compound complex formation by measuring hyperchromic shift in presence of ZnSO4 by UV-Vis spectroscopy
[9] = Cytotoxicity against human WI-38 cells assessed as inhibition of cell growth incubated for 72 hrs by MTT assay; format: toxicity, cell-based
[10] = Metal chelating activity assessed as Fe2+-compound complex formation by measuring hyperchromic shift in presence of FeSO4 by UV-Vis spectroscopy
[11] = molecular target: T1, Microtubule-associated protein tau; test: Inhibition of human tau protein aggregation incubated for 1.5 hrs by TMB substrate based ELISA
[12] = molecular target: Cholinesterase (Homo sapiens, UniProt P06276); test: Inhibition of human BuChE measured after 15 to 20 mins by DTNB reagent based Ellman's method
Sequence of Cholinesterase (P06276 whole entry): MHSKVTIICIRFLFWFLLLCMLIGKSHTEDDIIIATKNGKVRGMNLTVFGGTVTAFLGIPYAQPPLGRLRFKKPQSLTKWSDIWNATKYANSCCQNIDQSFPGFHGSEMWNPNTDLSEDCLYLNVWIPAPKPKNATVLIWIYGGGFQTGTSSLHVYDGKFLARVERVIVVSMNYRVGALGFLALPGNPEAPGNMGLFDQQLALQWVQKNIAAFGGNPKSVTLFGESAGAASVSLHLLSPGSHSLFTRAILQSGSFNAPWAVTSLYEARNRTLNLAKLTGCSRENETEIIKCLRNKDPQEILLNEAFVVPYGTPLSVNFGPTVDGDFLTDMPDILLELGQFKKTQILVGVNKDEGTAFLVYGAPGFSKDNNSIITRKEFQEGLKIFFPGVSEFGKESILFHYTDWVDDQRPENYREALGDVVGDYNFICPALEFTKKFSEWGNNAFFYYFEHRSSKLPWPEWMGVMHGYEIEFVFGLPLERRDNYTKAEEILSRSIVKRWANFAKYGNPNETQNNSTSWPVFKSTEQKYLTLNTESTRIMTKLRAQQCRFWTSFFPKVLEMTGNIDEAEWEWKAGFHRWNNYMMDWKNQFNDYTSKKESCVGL

[13] = molecular target: T2, Amyloid-beta precursor protein; test: Inhibition of self mediated Amyloid beta (1 to 42) (unknown origin) aggregation measured every 5 mins by ThT fluorescence based assay
[14] = Metal chelating activity assessed as Cu2+-compound complex formation by measuring hypochromic shift in presence of CuSO4 by UV-Vis spectroscopy
[15] = Metal chelating activity assessed as Zn2+-compound complex formation by measuring hypochromic shift in presence of ZnSO4 by UV-Vis spectroscopy

Which IC50 [1] does the source give for `CCCCCCCCCCCCCC(=O)N[C@@H](CCCCN)C(=O)N[C@@H](CCC(=O)O)C(=O)N[C@@H](C)C(=O)N1CCC[C@H]1C(=O)N1CCC[C@H]1C(=O)N[C@@H](CO)C(=O)N1CCC[C@H]1C(=O)N1CCC[C@H]1C(=O)N[C@@H](CCC(N)=O)C(=O)N[C@@H](COP(=O)(O)O)C(=O)N1CCC[C@H]1C(=O)O` (Myristoyl-KEAPPSPPQ[pS]P-OH) here?
The IC50 was 1000 nM.

Which IC50 [2] does the source give for `COc1ccc(-c2cc(-c3ccc(Br)cc3)nc3[nH]nc(N)c23)cc1` here?
Its IC50 is 350 nM.

For `Nc1n[nH]c2nc(-c3ccccc3)cc(-c3ccccc3)c12`, which IC50 [2] is on record?
Its IC50 is 5270 nM.

For `COc1ccc(-c2cc(-c3ccc(OC)c(OC)c3)c3c(N)n[nH]c3n2)cc1`, which IC50 [2] is on record?
Its IC50 is 810 nM.

Which Activity [3] does the source give for `Nc1n[nH]c2nc(-c3ccc(Br)cc3)cc(-c3ccc(Br)cc3)c12` here?
Its Activity is “Active”.

What about the inhibition [4] of the same compound?
Its inhibition is 66%.

And the inhibition [5]?
The inhibition was 79%.

And the viability at 72 h, 3.125 µM [6]?
The viability at 72 h, 3.125 µM was 100%.

What about the selectivity ratio [7] of the same compound?
The selectivity ratio was 343.

And the Activity [8]?
Its Activity is “Active”.

And the IC50 at 72 h [9]?
Its IC50 at 72 h is 58300 nM.

What about the Activity [10] of the same compound?
Its Activity is “Active”.

What about the IC50 [1] of the same compound?
The IC50 was 210 nM.

What about the IC50 [11] of the same compound?
The IC50 was 11600 nM.

And the IC50 [12]?
The IC50 was 170 nM.

What about the IC50 [2] of the same compound?
Its IC50 is 170 nM.

And the IC50 [13]?
The IC50 was 460 nM.

For `Nc1n[nH]c2nc(-c3ccccc3)cc(-c3ccc(Br)cc3)c12`, which IC50 [2] is on record?
The IC50 was 2240 nM.

For `COc1ccc(-c2cc(-c3ccc(OC)cc3)c3c(N)n[nH]c3n2)cc1`, which IC50 [2] is on record?
Its IC50 is 260 nM.

With `COc1ccc(-c2cc(-c3ccccc3)nc3[nH]nc(N)c23)cc1` as the compound, how does the IC50 [2] read?
Its IC50 is 22400 nM.

With `COc1cc(-c2cc(-c3ccccc3)nc3[nH]nc(N)c23)cc(OC)c1OC` as the compound, how does the IC50 [2] read?
Its IC50 is 1890 nM.

With `COc1ccc(-c2cc(-c3ccccc3)nc3[nH]nc(N)c23)cc1OC` as the compound, how does the IC50 [2] read?
The IC50 was 9630 nM.

For `COc1cc(-c2cc(-c3ccc(Br)cc3)nc3[nH]nc(N)c23)cc(OC)c1OC`, which IC50 [2] is on record?
The IC50 was 630 nM.

For `COc1ccc(-c2cc(-c3ccc(Br)cc3)c3c(N)n[nH]c3n2)cc1`, which IC50 [2] is on record?
Its IC50 is 3720 nM.

With `COc1ccc(-c2cc(-c3ccc(Br)cc3)nc3[nH]nc(N)c23)cc1OC` as the compound, how does the inhibition [4] read?
The inhibition was 60%.

What about the Activity [14] of the same compound?
The Activity was “Active”.

What about the inhibition [5] of the same compound?
The inhibition was 75%.

And the viability at 72 h, 3.125 µM [6]?
Its viability at 72 h, 3.125 µM is 100%.

And the selectivity ratio [7]?
The selectivity ratio was 528.

And the IC50 at 72 h [9]?
The IC50 at 72 h was 84500 nM.

What about the Activity [15] of the same compound?
Its Activity is “Active”.

What about the Activity [10] of the same compound?
Its Activity is “Active”.

And the IC50 [1]?
Its IC50 is 260 nM.

What about the IC50 [11] of the same compound?
Its IC50 is 20300 nM.

What about the IC50 [12] of the same compound?
Its IC50 is 690 nM.

And the IC50 [2]?
Its IC50 is 160 nM.

And the IC50 [13]?
The IC50 was 770 nM.

Which IC50 [2] does the source give for `COc1ccc(-c2cc(-c3cc(OC)c(OC)c(OC)c3)c3c(N)n[nH]c3n2)cc1` here?
The IC50 was 6010 nM.
